What was measured:
in vitro = conditions: chlorocebus sabaeus, Vero E6 (Vero C1008) cells
SARS-CoV-2 [1] = test: microbe, parasite or virus in culture; conditions: Severe acute respiratory syndrome coronavirus 2, Vero C1008, 48 h
SARS-CoV-2 [2] = test: microbe, parasite or virus in culture; assay type: functional, organism-based, Chlorocebus sabaeus, Vero C1008; conditions: Severe acute respiratory syndrome coronavirus 2, Vero C1008, 48 h

Row | SMILES | CC50 at 48 h (in vitro; CC50) [µM] | CC50 at 48 h (in vitro; pCC50) [µM] | IC50 (SARS-CoV-2 [1]) [µM] | IC50 (SARS-CoV-2 [1]; read-out: pIC50 (converted)) [µM] | IC50 (SARS-CoV-2 [2]; read-out: IC50) [µM] | IC50 (SARS-CoV-2 [2]; read-out: pIC50 (converted)) [µM]
1 | COc1ccc2nc3c(c(N)c2c1)CCCC3 | 47.9 | 47.9 | ~11.5 | ~11.5 | > 25.1 | > 25.1
2 | CN(C)CC/C=C1/c2ccccc2Sc2ccc(Cl)cc21 [CHLORPROTHIXENE] | 13.8 | 13.8 | 7.08 | 7.08 | > 100 | > 100
3 | CC(C)(C)c1cc(C(C)(C)C)c(NC(=O)c2c[nH]c3ccccc3c2=O)cc1O [IVACAFTOR] | 4.62 | 4.57 | 4.57 | 4.57 | > 25.1 | > 25.1
4 | CN(C)CCON=C1c2ccccc2CCc2ccccc21 [NOXIPTILINE] | 77.6 | 77.6 | 14.1 | 14.1 | > 100 | > 100
5 | COc1ccc2cc(-c3cc(-c4cc(Cl)cc(Cl)c4)nn3[C@@H](C)c3ccc(C(=O)NCCC(=O)O)cc3)ccc2c1 [MK-0893] | ~18.8 | ~18.6 | > 100 | > 100 | > 100 | > 100
6 | COc1cc(/C=C/C(=O)CC(=O)/C=C/c2ccc(O)c(OC)c2)ccc1O [CURCUMIN] | 14.8 | 14.8 | > 100 | > 100 | > 100 | > 100
7 | CN(C)CCCn1cc(-c2ccccc2)c(-c2ccccc2)n1 [FEZOLAMINE] | 39.8 | 39.8 | 14.5 | 14.5 | > 100 | > 100
8 | COc1ccc2c(c1)N(CCCN(C)C)c1ccccc1S2 [METHOXYPROMAZINE] | 14.1 | 14.1 | > 20 | > 20 | > 100 | > 100
9 | CCCCc1oc2ccc(NS(C)(=O)=O)cc2c1C(=O)c1ccc(OCCCN(CCCC)CCCC)cc1 [DRONEDARONE] | 3.85 | 3.8 | ~3.02 | ~3.02 | > 100 | > 100
10 | CCC(CC)COC(=O)[C@H](C)N[P@](=O)(OC[C@H]1O[C@@](C#N)(c2ccc3c(N)ncnn23)[C@H](O)[C@@H]1O)Oc1ccccc1 | 95.5 | 95.5 | ~4.64 | ~4.68 | ~2.6 | ~2.57
11 | Fc1ccc([C@@H]2CCNC[C@H]2COc2ccc3c(c2)OCO3)cc1 [PAROXETINE] | 16.6 | 16.6 | 15.1 | 15.1 | > 100 | > 100
12 | C[C@H]1[C@H]2CC[C@H]3[C@@H]4CC=C5C[C@@H](N(C)C)CC[C@]5(C)[C@H]4CC[C@]23CN1C [CONESSINE] | 34.7 | 34.7 | 12 | 12 | > 25.1 | > 25.1
13 | Cc1cc(-c2ccc(/N=N/c3ccc4c(S(=O)(=O)O)cc(S(=O)(=O)O)c(N)c4c3O)c(C)c2)ccc1/N=N/c1ccc2c(S(=O)(=O)O)cc(S(=O)(=O)O)c(N)c2c1O [EVANS BLUE FREE ACID] | 18 | 17.8 | > 100 | > 100 | > 100 | > 100
14 | Cc1cccc(C)c1OCC(=O)N[C@@H](Cc1ccccc1)[C@@H](O)C[C@H](Cc1ccccc1)NC(=O)[C@H](C(C)C)N1CCCNC1=O [LOPINAVIR] | ~33.7 | ~33.9 | 22.9 | 22.9 | ~15.7 | ~15.5
15 | CCOC(=O)[C@H]1O[C@@H]1C(=O)N[C@@H](CC(C)C)C(=O)NCCC(C)C [ALOXISTATIN] | > 100 | > 100 | 34.3 | 33.9 | 85.1 | 85.1
16 | COC(=O)[C@H]1[C@H]2C[C@@H]3c4[nH]c5cc(OC)ccc5c4CCN3C[C@H]2C[C@@H](OC(=O)c2cc(OC)c(OC)c(OC)c2)[C@@H]1OC [RESERPINE] | ~11 | ~11 | > 25.1 | > 25.1 | > 50.1 | > 50.1
17 | c1ccc(C(O[C@H]2CCCN(CCc3ccc4c(c3)OCO4)C2)c2ccccc2)cc1 | > 100 | > 100 | > 100 | > 100 | 87.1 | 87.1
18 | COc1ccc([C@@H](Cc2ccncc2)c2ccccc2)cc1OC1CCCC1 | 23.4 | 23.4 | > 100 | > 100 | > 100 | > 100
19 | CNCc1ccc(-c2cc(-c3nc(-c4ccc(S(=O)(=O)C(C)C)cc4)cnc3N)on2)cc1 [BERZOSERTIB] | 10.2 | 10.2 | > 5.01 | > 5.01 | ~7.16 | ~7.08
20 | CCCCCCC(C)(C)c1cc(O)c2c(c1)OC(C)(C)[C@@H]1CC=C(C(=O)O)C[C@@H]21 [LENABASUM] | ~21.4 | ~21.4 | > 100 | > 100 | > 100 | > 100
21 | COc1ccc2c(c1)N(C[C@H](C)CN(C)C)c1ccccc1S2 [LEVOMEPROMAZINE] | 11.6 | 11.5 | 11.8 | 11.7 | > 50.1 | > 50.1
22 | CCC1(CC)C(=O)NCC(C)C1=O (stereo not drawn) [METHYPRYLON] | > 25.1 | > 25.1 | 18.4 | 18.2 | > 25.1 | > 25.1
23 | C#CC1(OC(C)=O)CCC2C3CCC4=C/C(=N/O)CCC4C3CCC21CC (stereo not drawn) | 20.9 | 20.9 | > 100 | > 100 | > 100 | > 100
24 | CC(C)(C)c1ccc(C(O)CCCN2CCC(C(O)(c3ccccc3)c3ccccc3)CC2)cc1 (stereo not drawn) [TERFENADINE] | ~5.13 | ~5.13 | > 100 | > 100 | > 100 | > 100
25 | CC(C)(C)NC[C@H](O)COc1ccccc1C1CCCC1 [PENBUTOLOL] | 29.5 | 29.5 | 15.1 | 15.1 | 20 | 20
26 | CN(C)CCOC(C)(c1ccccc1)c1ccc(Cl)cc1 (stereo not drawn) [CHLORPHENOXAMINE] | 28.2 | 28.2 | 19.5 | 19.5 | ~14.5 | ~14.5
27 | Cc1ccc(C(=O)Nc2ccc(CN3CCN(C)CC3)c(C(F)(F)F)c2)cc1C#Cc1cnc2cccnn12 [PONATINIB] | 0.989 | 0.977 | > 100 | > 100 | > 100 | > 100
28 | Cc1nc(Nc2ccc(F)cc2)nc(N2CCc3ccccc3C2C)c1C (stereo not drawn) [REVAPRAZAN] | 11.5 | 11.5 | > 100 | > 100 | 10.5 | 10.5

Reference: ChEMBL document CHEMBL4651402, “Screening of ~5500 FDA-approved drugs and clinical candidates for anti-SARS-CoV-2 activity” (2021)
